Source: US10434076B2, “Use of 2,5-dihydroxybenzene derivatives for treating dermatitis” (AmDerma Pharmaceuticals, LLC, priority 2006, dated 2019)
Entries after “also recorded” stand apart in the source; their conditions may differ.

Experiments:
[1] = molecular target: Fibroblast Growth Factor-1 (FGF-1) (Homo sapiens, UniProt P05230); test: Structural interaction with FGF-1 (diffraction of complex crystals); type: binding; conditions: electron density
Experimental: As of the diffraction from complex crystals of FGF-1: 2-acetoxy-5-hydroxybenzenesulfonic acid, FGF-1; 5-acetoxy-2-hydroxybenzenesulfonic acid and FGF-1: 2,5-diacetoxybenzenesulfonic acid, the complex structures were calculated and represented. In FIGS. 10, 11 and 12, representing the surface of the protein coloured according to its electrostatic potential (light grey: negative charge, dark grey: positive charge, white: areas with no charge), the interaction form of the 2-acetoxy-5-hydroxybenzenesulfonic acid, 5-acetoxy-2-hydroxybenzenesulfonic acid and 2,5-diacetoxybenzenesulfonic acid, respectively, with the FGF-1 may be observed.

[2] = tested on: dermatitis induced by the application of benzalkonium chloride on the rat ears; test: Benzalkonium chloride induced dermatitis on rat ears, Evans blue dye extravasation; type: in vivo; conditions: for percentage of the area stained in blue compared to the total area of the ear (dermatitis extent): treated vs untreated ear
Experimental: Dermatitis was induced by the application of benzalkonium chloride, 5% solution (w/v) (1:5 olive oil:acetone) on the entire extent of the back part of the car ([…]) in anesthetized rats. Dermatitis was induced in both ears. In the assay of 2,5-dihydroxybenzenesulfonate (DHBS), a cream containing 5% of DHBS (w/w) was applied topically only on the back part of the right ear, 30 minutes after the application of benzalkonium chloride. Fifteen minutes later, 0.5% by weight of Evans blue dye solution (400 μL per animal) was injected into the jugular vein. […] Therefore, it can be stated that topical application of 5% DHBS reduced the dermatitis extent.
This observation was confirmed upon quantification of dermatitis extent based on the area of the ear stained in blue with respect to the total area of the ear. Identically obtained photographs of the extended ears were processed in order to determine the stained area and the total area of the ear using a computer program to analyze images (Motic Image). The stained area of each ear was related to the total area to obtain the percentage of the ear affected by the dermatitis. […] 24 hours after dermatitis induction (FIG. 2B), these values were very similar.
Using the same procedure as in the former example, dermatitis was induced by the application of benzalkonium chloride, 5% solution (w/v) (1:5 olive oil:acetone) on the entire extent of the back part of the ear (40 μL/ear) in anesthetized rats. Dermatitis was induced in both ears. A cream containing 5% (w/v) of either 2-acetoxy-5-hydroxybenzenesulfonate (2A-5HBS) or 5-acetoxy-2-hydroxybenzenesulfonate (5A-2HBS) was applied topically only on the back part of the right ear, 30 minutes after the application of benzalkonium chloride. Fifteen minutes later, 0.5% (w/v) of Evans blue dye solution (400 μL per animal) was injected into the jugular vein. […] Therefore, it can be stated that topical application of 5% 2A-5HBS and 5% 5A-2HBS reduced the dermatitis extent.
This observation was confirmed upon quantification of dermatitis extent based on the area of the ear stained in blue with respect to the total area of the ear. Identically obtained photographs of the extended ears were processed in order to determine the stained area and the total area of the ear using a computer program to analyze images (Motic Image). The stained area of each car was related to the total area to obtain the percentage of the ear affected by the dermatitis.

[3] = tested on: dermatitis induced by benzalkonium chloride on the ear of the rat; test: Benzalkonium chloride induced dermatitis on rat ears, erythema and histological study; type: in vivo
Experimental: Using the same model, dermatitis was induced on both ears of two rats, following the same process described above. In this case, 30 minutes after the application of benzalkonium chloride, a rat was treated in both ears with a glycerol solution (FIG. 3A), while the other one was treated in both ears with a glycerol solution containing 2.5% (w/v) of 2,5-diacetoxybenzenesulfonate (DABS) (FIG. 3B).

[4] = tested on: myeloperoxidase (MPO) activity; test: Myeloperoxidase (MPO) activity in the ear after benzalkonium chloride induced dermatitis; type: in vivo, rat; conditions: for increase in MPO activity in the ear caused by dermatitis: 24 hours after induction
Experimental: In this same model (Hyun E et al. Br J Pharmacol, 2004), dermatitis induction has been associated to an increase in the myeloperoxidase (MPO) activity in the ear, as a marker of leukocyte infiltration in the tissue affected with dermatitis. Based on these evidences, the effect of hydroxybenzene derivatives (i the activity of the MPO in the model described in this example was established. The MPO activity was determined in the ears of control rats (without dermatitis) and in ears on which dermatitis had been induced with benzalkonium chloride and had been treated with vehicle (anhydrous glycerol), 5% DHBS cream or DABS 2.5% solution in glycerol. The ears were frozen in liquid nitrogen 24 hours after the induction of dermatitis and were kept at −80° C. until determination of MPO activity. To determine the MPO activity, the frozen ears were homogenized in phosphate buffer with 0.5% of hexadecyltrimethylammonium bromide. After several freezing/thawing/sonication cycles, the samples were centrifuged at 13,000×g during 20 minutes at 4° C. H2O2 and O-dianisidine were added into the supernatants and the absorbance was measured at 460 nm in a spectrophotometer 1 hour after incubation at room temperature. The MPO activity is expressed as absorbance units per mg of tissue.

[5] = topical 5% (w/v) monoester on right ear vs untreated left ear, 24 hours after induction
[6] = topical 5% monoester solution, 24 hours after induction
[7] = topical 2.5% DABS in glycerol vs vehicle, tissues fixed 24 hours after induction

Sequence of Fibroblast Growth Factor-1 (FGF-1) (P05230 whole entry, species assumed): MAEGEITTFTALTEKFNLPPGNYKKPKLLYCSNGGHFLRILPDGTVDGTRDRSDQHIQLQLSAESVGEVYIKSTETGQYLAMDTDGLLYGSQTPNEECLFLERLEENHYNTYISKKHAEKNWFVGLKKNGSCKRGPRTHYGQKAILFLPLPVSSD

| Compound | acetoxyl groups kept when bound to FGF-1 [1] | location of the compound bound to FGF-1 [1] | blue stain extent (Evans blue dye extravasation), photographs [2, 5] | percentage of the area stained in blue compared to the total area of the ear (dermatitis extent) [2, 6] | erythema caused by the dermatitis ([3]; topical 2.5% (w/v) DABS in glycerol vs glycerol vehicle) | granulocytes adhered to the capillary endothelial cells (histological study) [3, 7] | leukocyte infiltration (histological study) [3, 7] | tissular edema (histological study) [3, 7] | efficacy on MPO activity relative to 5% DHBS ([4]; 2.5% DABS (half the amount of active principle) compared with 5% DHBS) | increase in MPO activity in the ear caused by dermatitis ([4]; topical 2.5% DABS solution in glycerol vs vehicle) | increase in MPO activity in the ear caused by dermatitis ([4]; topical 5% DHBS cream vs vehicle) | blue stain extent (Evans blue dye extravasation), photographs ([2]; topical cream 5% DHBS on right ear vs untreated left ear, 4 hours after dermatitis induction) | percentage of the area stained in blue compared to the total area of the ear (dermatitis extent) ([2]; topical cream 5% DHBS, 4 hours after induction) |
| --- | --- | --- | --- | --- | --- | --- | --- | --- | --- | --- | --- | --- | --- |
| CC(=O)Oc1ccc(O)cc1S(=O)(=O)O [2A-5HBS, 2-acetoxy-5-hydroxybenzenesulfonic acid] | keep the acetoxyl groups in positions 2, 5 and, 2 and 5, respectively | located at a site very close to the site that, as described, is occupied by the 2,5-dihydroxybenzenesulfonic acid | clearly smaller blue stain; also recorded: remarkably reduced dye extravasation | significantly reduced the percentage of the area stained in blue; also recorded: significantly reduced dermatitis extent | – | – | – | – | – | – | – | – | – |
| CC(=O)Oc1ccc(O)c(S(=O)(=O)O)c1 [5A-2HBS, 5-acetoxy-2-hydroxybenzenesulfonic acid] | keep the acetoxyl groups in positions 2, 5 and, 2 and 5, respectively | located at a site very close to the site that, as described, is occupied by the 2,5-dihydroxybenzenesulfonic acid | notably reduced; also recorded: remarkably reduced dye extravasation | significantly reduced the percentage of the area stained in blue | – | – | – | – | – | – | – | – | – |
| CC(=O)Oc1ccc(OC(C)=O)c(S(=O)(=O)O)c1 [DABS, 2,5-diacetoxybenzenesulfonic acid] | keep the acetoxyl groups in positions 2, 5 and, 2 and 5, respectively | located at a site very close to the site that, as described, is occupied by the 2,5-dihydroxybenzenesulfonic acid | – | – | reduced benzalkonium chloride induced dermatitis; also recorded: milder | significant reduction; also recorded: not observed | reduces the edema and the leukocyte infiltration; also recorded: noticeably milder | reduces the edema; also recorded: not observed | slightly higher | significantly reduces | – | – | – |
| O=S(=O)(O)c1cc(O)ccc1O [DHBS, 2,5-dihydroxybenzenesulfonic acid, reference compound] | – | – | – | – | – | – | – | – | – | – | significantly reduced | clearly smaller blue stain; also recorded: remarkably reduced dye extravasation | significantly reduced the percentage of the area stained in blue; also recorded: significantly reduced dermatitis extent |
